{"source": "patent US5204241A", "about": "“Glutathione-S-transferase mu as a measure of drug resistance” (Oxi-Gene Inc., priority 1990, dated 1993)", "test_system": "glutathione transferase (GST-tSBO, identical to GST-mu)", "assay": "Glutathione transferase activity of human liver cytosols (105,000 g supernatants) toward tauromustine and trans-stilbene oxide as substrates", "assay_type": "in vitro ADME", "protocol": "Human liver biopsies from ? 3 individuals were homogenized in 5 vol. of 0.25 M sucrose, centrifuged at 10,000 g for 15 minutes and then the resulting supernatant was re-centrifuged at 105,000 g for one hour. The 105,000 g supernatants were analyzed for glutathione transferase activity using trans-stilbene oxide (tSBO) and tauromustine as substrates. Metabolism of these substrates to glutathione conjugates was monitored by radiometric procedures involving differential organic solvent extraction, see Gill, S., Ota, J. and Hammock, B. D. Anal. Biochem. 131: 273-282 (1983), and high pressure liquid chromatography (HPLC)."}
{"compound": "CN(C)S(=O)(=O)CCNC(=O)N(CCCl)N=O", "note": "[tauromustine]", "values": [{"measurement": "glutathione transferase activity toward tauromustine", "setting": "human liver cytosols with GST-tSBO activity 0-10 nmo/min/mg protein (GST mu lacking)", "result": "0-2 nmol/min/mg protein"}, {"measurement": "glutathione transferase activity toward tauromustine (metabolism of tauromustine)", "setting": "human liver cytosols with easily detectable GST-tSBO activity, 25-65 nmol/min/mg protein (GST mu present)", "result": "4-19 nmol/min/mg protein"}, {"measurement": "extent of metabolism by human liver cytosols having GST mu activity versus cytosols lacking GST mu activity", "setting": "human liver cytosols, GST mu (+) vs (-)", "result": "metabolized to a much greater extent"}]}
